Data as given in ChEMBL document CHEMBL1133400, “Synthesis and pharmacology of a novel pyrrolo[2,1,5-cd] indolizine (NNC 45-0095), a high affinity non-steroidal agonist for the estrogen receptor” (Bioorg Med Chem Lett, 2000).

How the values were obtained:
Estrogen receptor [1] = biological target: Estrogen receptor (Mus musculus, UniProt O08537+P19785); assay: Uterotrophic activity in immature mouse; type: functional, tissue-based, Uterus
[2] = biological target: Estrogen receptor (Mus musculus) (UniProt O08537+P19785); assay: Percent maximal relative agonism for uterotrophic activity in immature mouse model; type: functional
Estrogen receptor (Mus musculus), sequence (O08537 whole entry, looked up): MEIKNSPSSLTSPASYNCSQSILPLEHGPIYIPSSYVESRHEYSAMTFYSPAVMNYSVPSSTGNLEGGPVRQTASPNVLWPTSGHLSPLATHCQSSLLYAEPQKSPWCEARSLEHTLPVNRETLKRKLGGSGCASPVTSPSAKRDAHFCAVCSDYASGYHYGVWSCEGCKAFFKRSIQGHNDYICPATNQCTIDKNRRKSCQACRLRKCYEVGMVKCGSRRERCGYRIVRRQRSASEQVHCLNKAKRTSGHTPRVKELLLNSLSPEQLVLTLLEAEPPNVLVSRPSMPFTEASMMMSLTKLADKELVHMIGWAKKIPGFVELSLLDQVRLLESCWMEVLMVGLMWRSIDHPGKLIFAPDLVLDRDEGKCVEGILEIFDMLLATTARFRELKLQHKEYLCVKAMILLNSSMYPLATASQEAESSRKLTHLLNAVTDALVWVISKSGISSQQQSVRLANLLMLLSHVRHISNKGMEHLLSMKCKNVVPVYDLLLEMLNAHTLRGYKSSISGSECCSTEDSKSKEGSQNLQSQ
Estrogen receptor (Mus musculus), sequence (P19785 whole entry, looked up): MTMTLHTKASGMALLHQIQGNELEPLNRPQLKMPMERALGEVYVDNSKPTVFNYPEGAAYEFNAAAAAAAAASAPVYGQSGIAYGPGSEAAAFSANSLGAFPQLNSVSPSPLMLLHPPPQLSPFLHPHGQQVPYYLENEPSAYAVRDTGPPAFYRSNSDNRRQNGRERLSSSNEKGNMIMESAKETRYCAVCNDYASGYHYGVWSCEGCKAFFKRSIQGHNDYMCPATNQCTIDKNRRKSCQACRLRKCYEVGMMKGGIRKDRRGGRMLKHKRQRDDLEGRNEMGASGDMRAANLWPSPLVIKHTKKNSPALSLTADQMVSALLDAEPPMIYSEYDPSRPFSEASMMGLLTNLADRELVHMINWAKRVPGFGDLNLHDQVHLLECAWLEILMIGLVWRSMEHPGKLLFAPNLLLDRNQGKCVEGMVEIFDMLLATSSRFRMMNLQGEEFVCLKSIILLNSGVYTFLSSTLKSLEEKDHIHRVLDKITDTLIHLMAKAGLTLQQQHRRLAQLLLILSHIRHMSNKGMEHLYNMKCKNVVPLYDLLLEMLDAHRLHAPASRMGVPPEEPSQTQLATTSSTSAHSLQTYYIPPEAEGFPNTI

Ishikawa [3] = assay: Percentp stimulation of alkaline phosphate activity in Ishikawa human endometrial adenocarcinoma cells relative to Moxestrol; type: functional
Ishikawa [4] = assay: Stimulation of endometrial activity in Ishikawa human endometrial adenocarcinoma cells; type: functional, cell-based
Estrogen receptor [5] = biological target: Estrogen receptor (Homo sapiens, UniProt Q92731+P03372); assay: Binding affinity for estrogen receptor of rabbit uterine […] muscle tissue; type: protein assay, Oryctolagus cuniculus; conditions: target entry is the homologue from another species

Row | SMILES | EC50 (Estrogen receptor [1]) [nM/g] | Activity [2] [%] | Emax (Ishikawa [3]) [%] | EC50 (Ishikawa [4]) [nM] | IC50 (Estrogen receptor [5]) [nM]
1 | CCc1c(-c2ccc(O)cc2)c2ccc3cccc1n32 | 0.96 | 76 | 105 | 13 | 
2 | C#C[C@]1(O)CC[C@H]2C3CCc4cc(O)ccc4[C@H]3[C@@H](OC)C[C@@]21C (single isomer, unassigned) [MOXESTROL] |  |  | 100 | 0.1 | 2.5
